{
  "source": "patent US12595503B2",
  "about": "“Reference dataset-based, spectrometric characterization of cell substrates using sub-libraries” (priority 2021, dated 2026)",
  "test_system": "E. coli",
  "assay": "MALDI-TOF (MALDI Biotyper) growth-based resistance/susceptibility determination of the test cell substrate in CTX-containing Mueller-Hinton nutrient medium",
  "parameters": "species or system Escherichia coli",
  "settings": "CTX 1 μg/mL; for logarithm of the similarity measure (log(score)), best match of second preparation: 4 h incubation",
  "source_text": "As proof of principle for the feasibility of the disclosed procedure, a cefotaxime-susceptible E. coli was selected as the test cell substrate and applied to the determination of a characteristic of the microorganism under investigation using a MALDI Biotyper® system. For this purpose, the resistance/susceptibility of the test cell substrate to a growth-influencing substance, in this example the antibiotic cefotaxime (CTX), was investigated using a prior art method and the method disclosed herein.\nThe test cell substrate was incubated in nutrient medium, Mueller-Hinton nutrient medium (first preparation—FIG. 2), and the same nutrient medium containing CTX at a concentration of 1 μg/mL (second preparation—FIGS. 3 and 4). The first preparation served as a growth control. The second preparation was used to determine the resistance/susceptibility of the test cell substrate to CTX.\nTo create the preparations, a large volume (stock suspension) of a cell suspension, here about 12 mL, otherwise regularly 10 to 50 mL, of the test cell substrate was prepared in Mueller-Hinton nutrient medium, a liquid nutrient medium. The concentration of the test cell substrate in the stock suspension was determined densitometrically in order to use an appropriate and equal amount of the test cell substrate for the first and second preparations. A small volume was taken from this stock suspension for the first preparation and transferred to a well of a microtiter plate. Since the first preparation was designed as a growth control, no antibiotic was present in the well. Simultaneously, for a second preparation, the same volume of stock suspension was removed and transferred to another well of the microtiter plate, thereby dissolving the antibiotic CTX, which was present in dried form in the well of the second preparation, for a final concentration of 1 μg/mL. The microtiter plate was then agitated to ensure complete dissolution and homogeneous distribution of the antibiotic in the cavity of the second preparation. Further preparations in the form of a concentration-dilution series for determining of a minimum inhibitory concentration (MIC) of the antibiotic CTX is easy to generate by selectively dissolving the dried CTX in additional wells of the microtiter plate. For example, a CTX concentration of 0.5 μg/mL can be set in the Mueller-Hinton nutrient medium in a third well for another preparation, and a CTX concentration of 2 μg/mL can be set in a fourth well for yet another preparation. Thus, the dilution series can comprise the CTX concentrations 0.5, 1 and 2 μg/mL, while additional dilution steps, e.g., 0.25 or 4 μg/mL can be included. Such a dilution series can also be performed in dilution steps of different sizes of the CTX concentration. […]",
  "data": [
    {"smiles": "CO/N=C(\\C(=O)N[C@@H]1C(=O)N2C(C(=O)O)=C(COC(C)=O)CS[C@H]12)c1csc(N)n1", "note": "[CTX, cefotaxime]", "values": [
      {"measurement": "logarithm of the similarity measure (log(score)), best match of second preparation", "setting": "compared with entire reference library (prior art method), best match Citrobacter farmeri, >=1.7 read as growth/resistance", "result": 1.83},
      {"measurement": "logarithm of the similarity measure (log(score)), best match of second preparation", "setting": "compared with first sub-library (five best E. coli reference datasets), <1.7 read as no growth/susceptibility", "result": 1.13},
      {"measurement": "property resistance or susceptibility to CTX", "setting": "compared with entire reference library (prior art method), patent calls this result false-positive", "result": "CTX-resistant"},
      {"measurement": "property resistance or susceptibility to CTX", "setting": "compared with first sub-library (method of the invention)", "result": "CTX-susceptible"}
    ]}
  ]
}
